Laboratory results taken from patent US20170360747A1, “USE OF ZILEUTON FOR THE TREATMENT OF NASAL POLYPS IN CYSTIC FIBROSIS PATIENTS” (CORNERSTONE THERAPEUTICS INC., priority 2011, published 2017).

How the values were obtained:
[1] = test system: coughing in patient with cystic fibrosis and chronic sinusitis; experiment: Case report Example 2: cystic fibrosis patient with chronic sinusitis and coughing; format: in vivo, human
Protocol: Patient failed medical treatment, so they underwent endoscopic sinus surgery. Patient's sinus culture has grown MRSA and Pseudomonas. Patient initially did well after the surgery but was readmitted for pulmonary exacerbation. […] Patient was treated with ciprofloxacin for Pseudomonas. […] Nasal endoscopy was not performed in the child due to their young age. The patient was then treated with zileuton 600 mg BID after a normal liver function test. Patient's coughing improved with the zileuton treatment.

[2] = test system: nasal polyposis in patient with cystic fibrosis; experiment: Case report Example 1: cystic fibrosis patient with bilateral nasal polyposis; format: in vivo, human
Protocol: A patient has a history of cystic fibrosis and chronic sinusitis. The patient complained of hyposmia and nasal congestion. […] Culture of the sinuses grew out Pseudomonas. Patient was prescribed ciprofloxacin per the sinus culture. […] Prior to prescribing oral zileuton, a liver function test was performed that was normal. Patient was given zileuton 1200 mg BID. Two months later patient came back with improved nasal congestion and smell. […] Since the patient's symptoms improved, the zileuton was eventually discontinued. After a few months the patient's sinus infection returned. Patient was placed on oral ciprofloxacin.

5-lipoxygenase = biological target: T1, 5-lipoxygenase (Homo sapiens, UniProt P09917); details: statement 'recently been found', no data given; cited from earlier work
T1 sequence (P09917 1-674): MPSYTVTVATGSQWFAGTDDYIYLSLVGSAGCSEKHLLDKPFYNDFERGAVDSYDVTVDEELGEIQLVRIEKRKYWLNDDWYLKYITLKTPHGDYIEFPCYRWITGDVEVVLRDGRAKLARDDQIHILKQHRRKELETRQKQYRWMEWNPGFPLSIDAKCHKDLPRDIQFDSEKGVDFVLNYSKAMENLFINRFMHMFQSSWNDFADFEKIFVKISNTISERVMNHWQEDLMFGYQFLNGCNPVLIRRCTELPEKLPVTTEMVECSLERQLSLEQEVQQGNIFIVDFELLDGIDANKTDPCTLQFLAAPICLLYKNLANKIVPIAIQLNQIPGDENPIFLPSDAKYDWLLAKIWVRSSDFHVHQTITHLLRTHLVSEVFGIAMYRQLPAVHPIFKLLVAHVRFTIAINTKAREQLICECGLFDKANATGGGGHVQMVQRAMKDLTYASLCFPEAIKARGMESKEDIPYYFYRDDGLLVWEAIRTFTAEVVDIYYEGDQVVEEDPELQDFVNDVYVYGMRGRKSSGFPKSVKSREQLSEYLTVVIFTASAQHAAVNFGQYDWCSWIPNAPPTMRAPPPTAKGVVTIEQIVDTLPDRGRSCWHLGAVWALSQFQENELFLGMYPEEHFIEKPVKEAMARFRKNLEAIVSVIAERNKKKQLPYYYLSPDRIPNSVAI

[3] = treatments given before zileuton (ciprofloxacin for Pseudomonas; inhaled dornase alfa)
[4] = zileuton 1200 mg BID oral, two months later, one patient

O=C(O)c1cn(C2CC2)c2cc(N3CCNCC3)c(F)cc2c1=O [ciprofloxacin]
coughing [1, 3]: initially improved but gradually returned | nasal symptoms after return of sinus infection ([2]; oral ciprofloxacin, after zileuton was discontinued): initial improvement but eventually had return of their nasal symptoms

C[C@H](c1cc2ccccc2s1)N(O)C(N)=O [(R)-zileuton]
efficacy in inhibiting 5-lipoxygenase activity, compared between enantiomers and racemate (5-lipoxygenase): more efficacious than either of (S)-zileuton and racemic zileuton

CC(c1cc2ccccc2s1)N(O)C(N)=O (racemic) [zileuton, (±)-1-(1-Benzo[b]thien-2-ylethyl)-1-hydroxyurea]
coughing ([1]; zileuton 600 mg BID, one patient): improved | nasal congestion and smell [2, 4]: improved | nasal endoscopy: polyps [2, 4]: decreased polyps | nasal endoscopy: purulence ([2]; zileuton 1200 mg BID oral, two months later, prescribed ciprofloxacin not taken): no purulence | adverse effect: coughing ([2]; zileuton 1200 mg BID, dose then decreased to 600 mg BID): increased coughing

B1: dornase alfa (protein, UniProt P24855 23-282, looked up)
Deoxyribonuclease-1: LKIAAFNIQTFGETKMSNATLVSYIVQILSRYDIALVQEVRDSHLTAVGKLLDNLNQDAPDTYHYVVSEPLGRNSYKERYLFVYRPDQVSAVDSYYYDDGCEPCGNDTFNREPAIVRFFSRFTEVREFAIVPLHAAPGDAVAEIDALYDVYLDVQEKWGLEDVMLMGDFNAGCSYVRPSQWSSIRLWTSPTFQWLIPDSADTTATPTHCAYDRIVVAGMLLRGAVVPDSALPFNFQAAYGLSDQLAQAISDHYPVEVMLK
notes: inhaled dornase alfa, part of aggressive medical treatment
coughing [1, 3]: continued to have coughing
